Measured values as given in PMC11859184, “Synthesis and Evaluation of ^68Ga- and ^177Lu-Labeled [diF-Pro^14]Bombesin(6−14) Analogs for Detection and Radioligand Therapy of Gastrin-Releasing Peptide Receptor-Expressing Cancer” (Pharmaceuticals, 2025).
Like-named read-outs stand apart in the source and are kept apart here.

Assay: Ex vivo biodistribution of 177Lu-labeled ligands in PC-3 tumor-bearing mice
Conditions: mouse; for tissue to tissue ratio at 1 h / tissue uptake at 1 h: 1 h pi; for tissue to tissue ratio at 4 h / tissue uptake at 4 h: 4 h pi; for tissue to tissue ratio at 24 h / tissue uptake at 24 h: 24 h pi; for tissue to tissue ratio at 120 h / tissue uptake at 120 h: 120 h pi; for tissue uptake at 1 h / tissue uptake at 4 h / tissue uptake at 24 h / tissue uptake at 72 h / tissue uptake at 120 h: intravenous
Procedure: SPECT/CT imaging was conducted using an MI Labs (Houten, The Netherlands) U-SPECT-II/CT scanner with a custom-made ultra-high sensitivity big mouse collimator (2 mm pinhole size) following published procedure. The experiments were obtained in accordance with the same protocol established in the PET/CT imaging and ex vivo biodistributions section. The mice were used for SPECT/CT imaging and ex vivo biodistributions studies once the tumors reached a diameter of 5–8 mm. PC-3 tumor-bearing mice were sedated (2.5% isoflurane in O2) and injected with 31.4–36.9 MBq of the ^177Lu-labeled ligand through a lateral caudal tail vein. The mouse was imaged at 1, 4, 24, 72, and 120 h pi. At each time point, a 5 min CT scan was performed with 615 μA and 60 kV parameters for localization and attenuation, followed by two 30 min static SPECT scans in list mode with an energy window centered around 208 keV. The U-SPECT II software was used to reconstruct data, and the images were decay corrected to the time of injection with PMOD v 3.402 (PMOD Technologies GmbH, Fallanden, Switzerland).
For ex vivo biodistribution studies, the mice were injected with ~3–5 MBq of the ^177Lu-labeled ligand (n = 5). At 1, 4, 24, 72, and 120 h post-injection, the mice were anesthetized with 2% isoflurane, euthanized by CO2 inhalation, and the tissues/organs of interest were […] for radioactivity counting. The blocking study was performed at 1 h pi via co-injection of the ^177Lu-labeled ligand with 100 μg of [D-Phe^6,Leu-NHEt^13,des-Met^14]Bombesin(6–14).

[1] = male, NOD.Cg-Rag1^tm1Mom Il2rg^tm1Wjl/SzJ (NRG), tumor/blood, iv, total radioactivity, n = 5, read-out: Tumor/blood uptake ratio
[2] = male, NOD.Cg-Rag1^tm1Mom Il2rg^tm1Wjl/SzJ (NRG), tumor/kidney, iv, total radioactivity, n = 5, read-out: Tumor/kidney uptake ratio
[3] = male, NOD.Cg-Rag1^tm1Mom Il2rg^tm1Wjl/SzJ (NRG), tumor/muscle, iv, total radioactivity, n = 5, read-out: Tumor/muscle uptake ratio
[4] = male, NOD.Cg-Rag1^tm1Mom Il2rg^tm1Wjl/SzJ (NRG), tumor/pancreas, iv, total radioactivity, n = 5, read-out: Tumor/pancreas uptake ratio
[5] = PC-3 tumor, n = 5, read-out: PC-3 tumor uptake
[6] = adrenal glands, n = 5, read-out: Adrenal glands uptake
[7] = blood, n = 5, read-out: Blood uptake
[8] = bone, n = 5, read-out: Bone uptake
[9] = brain, n = 5, read-out: Brain uptake
[10] = fat, n = 5, read-out: Fat uptake
[11] = heart, n = 5, read-out: Heart uptake

## CC(C)C[C@H](NC(=O)[C@H](Cc1cnc[nH]1)N(C)C(=O)CNC(=O)[C@@H](NC(=O)[C@H](C)NC(=O)[C@H](Cc1c[nH]c2ccccc12)NC(=O)[C@H](CCC(N)=O)NC(=O)[C@@H](Cc1ccccc1)NC(=O)CN1CCC(NC(=O)CN2CCN(CC(=O)O)CCN(CC(=O)O)CCN(CC(=O)O)CC2)CC1)C(C)(C)C)C(=O)N1CC(F)(F)C[C@H]1C(N)=O [[^177Lu]Lu-LW02060, metal not drawn]
male, NOD.Cg-Rag1^tm1Mom Il2rg^tm1Wjl/SzJ (NRG), iv, total radioactivity, all time points, read-out: uptake in all other collected organs/tissues (other than tumor, pancreas, kidney)
  tissue uptake: < 1 %ID/g
male, NOD.Cg-Rag1^tm1Mom Il2rg^tm1Wjl/SzJ (NRG), tumor/blood, iv, total radioactivity, blocked (100 µg GRPR antagonist co-injected), read-out: Tumor/blood uptake ratio
  tissue to tissue ratio at 1 h: 6.37 ± 1.92
[1]
  tissue to tissue ratio at 1 h: 16.1 ± 2.2
  tissue to tissue ratio at 4 h: 144 ± 33.5
  tissue to tissue ratio at 24 h: 813 ± 203
  tissue to tissue ratio at 120 h: 1630 ± 548
male, NOD.Cg-Rag1^tm1Mom Il2rg^tm1Wjl/SzJ (NRG), tumor/blood, iv, total radioactivity, 72 h pi, n = 5, read-out: Tumor/blood uptake ratio
  tissue to tissue ratio at 72 h: 1120 ± 440
male, NOD.Cg-Rag1^tm1Mom Il2rg^tm1Wjl/SzJ (NRG), tumor/kidney, iv, total radioactivity, blocked (100 µg GRPR antagonist co-injected), read-out: Tumor/kidney uptake ratio
  tissue to tissue ratio at 1 h: 0.89 ± 0.22
[2]
  tissue to tissue ratio at 1 h: 2.65 ± 0.64
  tissue to tissue ratio at 4 h: 2.96 ± 0.3
  tissue to tissue ratio at 24 h: 5.67 ± 1.43
  tissue to tissue ratio at 120 h: 14.1 ± 4.53
male, NOD.Cg-Rag1^tm1Mom Il2rg^tm1Wjl/SzJ (NRG), tumor/kidney, iv, total radioactivity, 72 h pi, n = 5, read-out: Tumor/kidney uptake ratio
  tissue to tissue ratio at 72 h: 8.43 ± 2.89
male, NOD.Cg-Rag1^tm1Mom Il2rg^tm1Wjl/SzJ (NRG), tumor/muscle, iv, total radioactivity, blocked (100 µg GRPR antagonist co-injected), read-out: Tumor/muscle uptake ratio
  tissue to tissue ratio at 1 h: 23.2 ± 5.2
[3]
  tissue to tissue ratio at 1 h: 78.3 ± 13
  tissue to tissue ratio at 4 h: 196 ± 53.1
  tissue to tissue ratio at 24 h: 520 ± 113
  tissue to tissue ratio at 120 h: 744 ± 179
male, NOD.Cg-Rag1^tm1Mom Il2rg^tm1Wjl/SzJ (NRG), tumor/muscle, iv, total radioactivity, 72 h pi, n = 5, read-out: Tumor/muscle uptake ratio
  tissue to tissue ratio at 72 h: 522 ± 189
male, NOD.Cg-Rag1^tm1Mom Il2rg^tm1Wjl/SzJ (NRG), tumor/pancreas, iv, total radioactivity, blocked (100 µg GRPR antagonist co-injected), read-out: Tumor/pancreas uptake ratio
  tissue to tissue ratio at 1 h: 6.72 ± 2.24
[4]
  tissue to tissue ratio at 1 h: 3.57 ± 0.42
  tissue to tissue ratio at 4 h: 4.91 ± 0.14
  tissue to tissue ratio at 24 h: 5.7 ± 0.81
  tissue to tissue ratio at 120 h: 17.1 ± 2.1
male, NOD.Cg-Rag1^tm1Mom Il2rg^tm1Wjl/SzJ (NRG), tumor/pancreas, iv, total radioactivity, 72 h pi, n = 5, read-out: Tumor/pancreas uptake ratio
  tissue to tissue ratio at 72 h: 8.37 ± 3.35
PC-3 tumor, 100 ug, blocked (100 µg GRPR antagonist co-injected), read-out: PC-3 tumor uptake
  tissue uptake at 1 h: 3.25 ± 0.44 %ID/g
[5]
  tissue uptake at 1 h: 9.59 ± 3.37 %ID/g
  tissue uptake at 4 h: 8.38 ± 0.19 %ID/g
  tissue uptake at 24 h: 5.78 ± 0.4 %ID/g
  tissue uptake at 120 h: 2.19 ± 0.59 %ID/g
PC-3 tumor, 72 h pi, n = 5, read-out: PC-3 tumor uptake
  tissue uptake at 72 h: 2.74 ± 0.85 %ID/g
PC-3 tumor, after 72 h pi, read-out: tumor uptake
  tissue uptake at 72 h: < 3 %ID/g
Adrenal glands, 100 ug, blocked (100 µg GRPR antagonist co-injected), read-out: Adrenal glands uptake
  tissue uptake at 1 h: 0.27 ± 0.06 %ID/g
[6]
  tissue uptake at 1 h: 0.46 ± 0.15 %ID/g
  tissue uptake at 4 h: 0.33 ± 0.15 %ID/g
  tissue uptake at 24 h: 0.36 ± 0.3 %ID/g
  tissue uptake at 120 h: 0.1 ± 0.02 %ID/g
Adrenal glands, 72 h pi, n = 5, read-out: Adrenal glands uptake
  tissue uptake at 72 h: 0.13 ± 0.07 %ID/g
blood, 100 ug, blocked (100 µg GRPR antagonist co-injected), read-out: Blood uptake
  tissue uptake at 1 h: 0.43 ± 0.23 %ID/g
[7]
  tissue uptake at 1 h: 0.59 ± 0.18 %ID/g
  tissue uptake at 4 h: 0.06 ± 0.02 %ID/g
  tissue uptake at 24 h: 0.01 %ID/g
bone, 100 ug, blocked (100 µg GRPR antagonist co-injected), read-out: Bone uptake
  tissue uptake at 1 h: 0.12 ± 0.04 %ID/g
[8]
  tissue uptake at 1 h: 0.23 ± 0.06 %ID/g
  tissue uptake at 4 h: 0.1 ± 0.08 %ID/g
  tissue uptake at 24 h: 0.02 ± 0.01 %ID/g
  tissue uptake at 120 h: 0.02 %ID/g
bone, 72 h pi, n = 5, read-out: Bone uptake
  tissue uptake at 72 h: 0.02 %ID/g
brain, 100 ug, blocked (100 µg GRPR antagonist co-injected), read-out: Brain uptake
  tissue uptake at 1 h: 0.02 ± 0.01 %ID/g
[9]
  tissue uptake at 1 h: 0.02 ± 0.01 %ID/g
  tissue uptake at 4 h: 0.01 %ID/g
fat, 100 ug, blocked (100 µg GRPR antagonist co-injected), read-out: Fat uptake
  tissue uptake at 1 h: 0.06 ± 0.03 %ID/g
[10]
  tissue uptake at 1 h: 0.08 ± 0.02 %ID/g
  tissue uptake at 4 h: 0.02 ± 0.01 %ID/g
  tissue uptake at 24 h: 0.01 %ID/g
  tissue uptake at 120 h: 0.01 ± 0.01 %ID/g
heart, 100 ug, blocked (100 µg GRPR antagonist co-injected), read-out: Heart uptake
  tissue uptake at 1 h: 0.13 ± 0.05 %ID/g
[11]
  tissue uptake at 1 h: 0.19 ± 0.05 %ID/g
  tissue uptake at 4 h: 0.06 ± 0.02 %ID/g
  tissue uptake at 24 h: 0.02 %ID/g
